Assay results reported in US11214803B2, “Modulators of YAP1 expression” (Ionis Pharmaceuticals, Inc., priority 2019, dated 2022).
Strand notation (5' to 3'): a small letter for the sugar, then the base; units joined by * are phosphorothioate-linked, units joined directly phosphodiester-linked; [ ] holds rarer units or linkages, { } end groups; capitals alone tell only the bases. e = 2'-O-(2-methoxyethyl) (MOE); k = constrained ethyl (cEt); [5mC] = 5-methylcytosine; d = 2'-deoxy (DNA); m = 2'-O-methyl

Assays:
[1] = tested on: Yap1 mRNA; assay: Antisense inhibition of human Yap1 in SNU-449 cells by modified oligonucleotides, single dose (Example 5, RTS36584); format: cell-based
Procedure, shortened: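 Values are % of untreated control: Yap1 mRNA by quantitative RT-PCR (RTS36584), normalized to RIBOGREEN total RNA. Oligonucleotides were dosed at 2,000 nM, free uptake, in SNU-449 cells, with roughly 48 h exposure before RNA isolation.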

[2] = tested on: Yap1 mRNA; assay: Antisense inhibition of human Yap1 in A-431 cells by cEt gapmers, single dose (Example 2, RTS4814); format: cell-based
Procedure, shortened: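 Yap1 mRNA levels, by real-time RT-PCR (RTS4814) and corrected for total RNA via RIBOGREEN, are given as percent of untreated cells. Gapmers (16-mer, cEt wings, phosphorothioate, 5-methylC) were delivered without transfection at 2,000 nM to A-431 cells for about 48 hours.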

[3] = Table 48, Yap1 mRNA level relative to untreated control, modified oligonucleotides targeting SEQ ID NO.: 1 and 2
[4] = Yap1 mRNA, percent of untreated control, modified oligonucleotides targeting SEQ ID NO: 1 and 2, Table 47
[5] = Table 22, Yap1 mRNA as percent of untreated control, 3-10-3 cEt gapmers, single dose
[6] = Table 49, Yap1 mRNA level relative to untreated control, modified oligonucleotides targeting SEQ ID NO.: 1 and 2
[7] = Table 39, SNU-449 cells, 10,000 cells per well, free uptake, 2,000 nM oligonucleotide, approx. 48 hours, RTS36584, normalized to RIBOGREEN, Yap1 mRNA relative to untreated control
[8] = Table 52, Yap1 mRNA, modified oligonucleotides targeting SEQ ID NO: 1 and 2
[9] = Table 44 experiment, SNU-449 cells, 10,000 cells per well, free uptake, 2,000 nM, approximately 48 hours, RTS36584, Yap1 mRNA normalized to RIBOGREEN, relative to untreated control cells
[10] = Table 41, SNU-449 cells, 10,000 cells per well, free uptake, 2,000 nM modified oligonucleotide, approximately 48 hours, RTS36584, normalized to RIBOGREEN, Yap1 mRNA relative to untreated control cells
[11] = Table 40 (separate experiment), SNU-449 cells, 10,000 cells per well, free uptake, 2,000 nM oligonucleotide, approx. 48 hours, RTS36584, normalized to RIBOGREEN, Yap1 mRNA relative to untreated control
[12] = Table 43 experiment, SNU-449 cells, 10,000 cells per well, free uptake, 2,000 nM, approximately 48 hours, RTS36584, Yap1 mRNA normalized to RIBOGREEN, relative to untreated control cells
[13] = Table 45, Yap1 mRNA as percent of untreated control, SNU-449 cells, single dose
[14] = Table 50, Yap1 mRNA remaining as percent of untreated control (UT), SNU-449 cells, single dose
[15] = Table 46, Yap1 mRNA as percent of untreated control, SNU-449 cells, single dose

1074726 (antisense kG*kG*kT*dA*dT*dA*dA*d[5mC]*dT*dG*dG*dG*d[5mC]*kA*kA*kA) [Compound 1074726]
YAP1 (% UT) [1, 3]: 23 % UT | YAP1 (% UTC) ([2]; Table 20, Yap1 mRNA, percent of untreated control, 3-10-3 cEt gapmers targeting SEQ ID NO.: 1 and 2): 2 % UTC

1074756 (kG*k[5mC]*kA*d[5mC]*dT*dT*dT*dT*dA*d[5mC]*dA*dT*dT*kA*kG*kG) [Compound 1074756]
YAP1 (% UT) [1, 4]: 8 % UT | YAP1 (% UTC) ([2]; Table 18, A-431 cells, 5,000 cells per well, free uptake, 2,000 nM modified oligonucleotide, approx. 48 hours, RTS4814, normalized to RIBOGREEN, Yap1 mRNA as percent of untreated control): 3 % UTC

1076453 (kG*kT*kA*dA*dT*dA*dT*dT*dG*d[5mC]*dA*dA*dT*k[5mC]*kT*kG) [Compound 1076453]
YAP1 (% UT) [1, 4]: 7 % UT | YAP1 (% UTC) ([2]; Table 19, A-431 cells, 5,000 cells per well, free uptake, 2,000 nM modified oligonucleotide, approx. 48 hours, RTS4814, normalized to RIBOGREEN, Yap1 mRNA as percent of untreated control): 1 % UTC

716444 (kA*kA*kA*dT*dT*dG*dT*d[5mC]*dT*d[5mC]*dA*dT*dG*k[5mC]*k[5mC]*kT) [Compound 716444]
YAP1 (% UT) [1, 4]: 46 % UT | YAP1 (% UTC) ([2]; Table 6, A-431 cells, 5,000 cells per well, free uptake, 2,000 nM modified oligonucleotide, approx. 48 hours, RTS4814, normalized to RIBOGREEN, Yap1 mRNA relative to untreated control cells): 40 % UTC

716524 (antisense kA*k[5mC]*kT*dG*dA*dG*dG*dT*dA*dT*dA*dA*d[5mC]*kT*kG*kG) [Compound 716524]
YAP1 (% UT) [1, 3]: 59 % UT | YAP1 (% UTC) ([2]; Table 5, A-431 cells, 5,000 cells per well, free uptake, 2,000 nM modified oligonucleotide, approx. 48 hours, RTS4814, normalized to RIBOGREEN, Yap1 mRNA relative to untreated control cells): 35 % UTC

1074728 (antisense kT*kG*kA*dG*dG*dT*dA*dT*dA*dA*d[5mC]*dT*dG*kG*kG*k[5mC]) [Compound 1074728]
YAP1 (% UT) [1, 3]: 14 % UT | YAP1 (% UTC) [2, 5]: 3 % UTC

1074727 (antisense kG*kA*kG*dG*dT*dA*dT*dA*dA*d[5mC]*dT*dG*dG*kG*k[5mC]*kA) [Compound 1074727]
YAP1 (% UT) [1, 3]: 51 % UT | YAP1 (% UTC) ([2]; Table 21, Yap1 mRNA, percent of untreated control, 3-10-3 cEt gapmers targeting SEQ ID NO.: 1 and 2): 9 % UTC

1076456 (antisense k[5mC]*kT*kT*dT*dA*dA*dA*dG*dT*dG*dT*dA*dT*kG*kT*k[5mC]) [Compound 1076456]
YAP1 (% UT) [1, 3]: 44 % UT | YAP1 (% UTC) [2, 5]: 2 % UTC

1198577 (antisense k[5mC]*kT*kT*dT*dG*dG*dA*dA*dG*dA*dT*d[5mC]*kT*kG*kA*eA) [Compound 1198577]
YAP1 (% UT) [1, 6]: 40 % UT

1198433 (kG*dT*dA*dA*dT*dA*dT*dT*dG*d[5mC]*dA*kA*eT*k[5mC]*eT*kG) [Compound 1198433]
YAP1 (% UTC) [1, 7]: 36 % UTC

1076186 (kA*kT*kT*dT*dA*dG*dG*dA*dT*dG*d[5mC]*dA*dT*kG*kG*kT) [Compound 1076186]
YAP1 (% UT) [1, 4]: 31 % UT

1200842 (k[5mC]*kT*k[5mC]*dT*dT*mA*dT*dA*dT*dG*dG*dT*dT*kT*kT*kG; antisense) [Compound 1200842]
YAP1 (% UT) [1, 8]: 168 % UT

1198498 (antisense kT*kT*dA*dG*dG*dA*dT*dG*d[5mC]*dA*dT*eG*kG*eT*kT*eT) [Compound 1198498]
YAP1 (% UTC) [1, 9]: 39 % UTC

1198775 (k[5mC]*eA*kA*d[5mC]*dT*d[5mC]*dT*dT*dA*dT*dA*dT*eG*eG*kT*kT; antisense) [Compound 1198775]
YAP1 (% UTC) [1, 10]: 113 % UTC

1198749 (kT*eT*kA*dA*dG*d[5mC]*dA*d[5mC]*dT*dT*dT*dT*eA*e[5mC]*kA*kT; antisense) [Compound 1198749]
YAP1 (% UTC) [1, 11]: 73 % UTC

1198276 (kA*kG*dT*dA*dA*dG*dG*dT*dT*dT*d[5mC]*e[5mC]*e[5mC]*eA*kG*kA; antisense) [Compound 1198276]
YAP1 (% UTC) [1, 12]: 52 % UTC

1198879 (k[5mC]*kT*dT*dT*dA*dA*dA*dG*dT*dG*dT*kA*eT*kG*eT*k[5mC]; antisense) [Compound 1198879]
YAP1 (% UT) [1, 4]: 29 % UT

1198960 (kA*kA*dG*dT*dG*dT*dA*dT*dG*dT*d[5mC]*kA*dG*kA*dA*kG; antisense) [Compound 1198960]
YAP1 (% UTC) [1, 13]: 6 % UTC

1198630 (kA*kA*dT*dT*dG*dT*d[5mC]*dT*d[5mC]*dA*dT*dG*k[5mC]*e[5mC]*kT*eT; antisense) [Compound 1198630]
YAP1 (% UTC) [1, 10]: 37 % UTC

1198554 (antisense kT*kT*kA*dG*dA*dG*dT*dA*dT*dG*dT*dG*kG*k[5mC]*kA*eA) [Compound 1198554]
YAP1 (% UT) [1, 6]: 16 % UT

1200861 (kT*kT*kA*dA*dA*mG*dT*dG*dT*dA*dT*dG*dT*k[5mC]*kA*kG; antisense) [Compound 1200861]
YAP1 (% UT) [1, 8]: 10 % UT

1198608 (antisense kT*kA*kT*dG*dT*dA*dA*dT*dA*dT*dT*dG*k[5mC]*kA*kA*eT) [Compound 1198608]
YAP1 (% UT) [1, 14]: 83 % UT

1198848 (kA*kT*dT*dT*dA*dG*dG*dA*dT*dG*d[5mC]*kA*eT*kG*eG*kT; antisense) [Compound 1198848]
YAP1 (% UT) [1, 15]: 47 % UT

1198561 (antisense kG*kG*kT*dA*dT*dA*dA*d[5mC]*dT*dG*dG*dG*k[5mC]*kA*kA*eA) [Compound 1198561]
YAP1 (% UT) [1, 14]: 29 % UT

1009328 (kT*kA*kT*dA*dT*dT*dA*dG*dA*dG*dT*dA*dT*kG*kT*kG; antisense) [Compound 1009328]
YAP1 (% UT) [1, 4]: 67 % UT

1198385 (kA*dT*dA*dT*dT*dA*dG*dA*dG*dT*dA*kT*eG*kT*eG*kG; antisense) [Compound 1198385]
YAP1 (% UTC) [1, 7]: 30 % UTC

1198638 (kA*kG*dA*dG*dT*dA*dT*dG*dT*dG*dG*d[5mC]*kA*eA*kT*eA; antisense) [Compound 1198638]
YAP1 (% UTC) [1, 10]: 18 % UTC

1198491 (antisense k[5mC]*kT*dT*dT*dG*dG*dA*dA*dG*dA*dT*e[5mC]*kT*eG*kA*eA) [Compound 1198491]
YAP1 (% UTC) [1, 9]: 22 % UTC

1198840 (kG*k[5mC]*dT*dT*dT*dG*dG*dA*dA*dG*dA*kT*e[5mC]*kT*eG*kA; antisense) [Compound 1198840]
YAP1 (% UT) [1, 15]: 26 % UT

1197286 (kA*kT*kA*dT*mU*dA*dG*dA*dG*dT*dA*dT*dG*kT*kG*kG) [Compound 1197286]
YAP1 (% UT) [1, 14]: 43 % UT

1198568 (antisense kA*k[5mC]*kT*dT*dT*dT*dA*d[5mC]*dA*dT*dT*dA*kG*kG*kA*eA) [Compound 1198568]
YAP1 (% UT) [1, 6]: 31 % UT

1198847 (kT*kT*dT*dA*dG*dG*dA*dT*dG*d[5mC]*dA*kT*eG*kG*eT*kT; antisense) [Compound 1198847]
YAP1 (% UT) [1, 15]: 51 % UT

1198721 (kA*eT*kG*dG*dA*dA*dA*dT*dT*dG*dT*d[5mC]*eT*e[5mC]*kA*kT; antisense) [Compound 1198721]
YAP1 (% UTC) [1, 11]: 48 % UTC

1198279 (k[5mC]*kT*dA*dA*dG*dT*dA*dA*dG*dG*dT*eT*eT*e[5mC]*k[5mC]*k[5mC]; antisense) [Compound 1198279]
YAP1 (% UTC) [1, 12]: 43 % UTC

1198229 (kT*kT*dA*dA*dG*d[5mC]*dA*d[5mC]*dT*dT*dT*eT*eA*e[5mC]*kA*kT) [Compound 1198229]
YAP1 (% UTC) ([1]; Table 42 (separate experiment), SNU-449 cells, 10,000 cells per well, free uptake, 2,000 nM modified oligonucleotide, approximately 48 hours, RTS36584, normalized to RIBOGREEN, Yap1 mRNA relative to untreated control cells): 80 % UTC

1200847 (kA*kT*kT*dG*d[5mC]*mA*dA*dT*d[5mC]*dT*dG*dT*d[5mC]*kT*kG*kA; antisense) [Compound 1200847]
YAP1 (% UT) [1, 8]: 54 % UT

1198624 (kA*k[5mC]*kT*dA*dA*dG*dT*dA*dA*dG*dG*dT*kT*kT*k[5mC]*e[5mC]; antisense) [Compound 1198624]
YAP1 (% UT) [1, 14]: 20 % UT

1200828 (kA*kT*kA*dG*dT*mG*d[5mC]*dT*dT*dT*dG*dG*dA*kA*kG*kA; antisense) [Compound 1200828]
YAP1 (% UT) [1, 8]: 54 % UT

1198967 (kT*kA*dA*dG*dG*dT*dT*dT*d[5mC]*d[5mC]*d[5mC]*kA*dG*kA*dT*kT; antisense) [Compound 1198967]
YAP1 (% UTC) [1, 13]: 65 % UTC

1198615 (antisense kT*kT*kA*dA*dA*dG*dT*dG*dT*dA*dT*dG*kT*k[5mC]*kA*eG) [Compound 1198615]
YAP1 (% UT) [1, 14]: 10 % UT

1198904 (kT*kA*dT*dT*dA*dG*dA*dG*dT*dA*dT*kG*dT*kG*dG*k[5mC]; antisense) [Compound 1198904]
YAP1 (% UTC) [1, 9]: 12 % UTC
